Where “and” joins values, the source holds several entries; their conditions need not be identical. Equal values may be shown once. Toxic doses and inconclusive results are not listed. Rule for the calls: active = survival T/C of 150% or more; inactive = T/C below 125% in these data.
Test system: P388 leukemia ip, CD2F1 mice, survival T/C
Experiment: NCI In Vivo Anticancer Drug Screen. Data for tumor model P388 Leukemia (intraperitoneal) in CD2F1 (CDF1) mice
Conditions: endpoint: median survival time, higher = longer survival
How it was run: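 Mice carrying the transplanted tumor received test compound or vehicle. Survival was recorded in each group, and the value is the treated-group measurement divided by that of the vehicle-treated control group.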

[1] = dose: 100.0 mg/kg/injection, schedule: Q04DX003 (ip), vehicle: saline
[2] = dose: 200.0 mg/kg/injection, schedule: Q04DX003 (ip), vehicle: saline
[3] = dose: 100.0 mg/kg/injection, schedule: Q04DX003 (ip), vehicle: saline with Tween-80
[4] = dose: 200.0 mg/kg/injection, schedule: Q04DX003 (ip), vehicle: saline with Tween-80
[5] = dose: 400.0 mg/kg/injection, schedule: Q04DX003 (ip), vehicle: saline with Tween-80
[6] = dose: 100.0 mg/kg/injection, schedule: Q01DX009 (ip), vehicle: saline with Tween-80
[7] = dose: 50.0 mg/kg/injection, schedule: Q01DX009 (ip), vehicle: saline
[8] = dose: 100.0 mg/kg/injection, schedule: Q01DX009 (ip), vehicle: saline
[9] = dose: 200.0 mg/kg/injection, schedule: Q01DX009 (ip), vehicle: saline

Measured: T/C

CC(O)(CCO)CCO
inactive: dose: 25.0 mg/kg/injection, schedule: Q01DX005 (ip), vehicle: water 98 % of control | dose: 50.0 mg/kg/injection, schedule: Q01DX005 (ip), vehicle: water 100 % of control | dose: 100.0 mg/kg/injection, schedule: Q01DX005 (ip), vehicle: water 98 % of control | dose: 200.0 mg/kg/injection, schedule: Q01DX005 (ip), vehicle: water 99 % of control | dose: 400.0 mg/kg/injection, schedule: Q01DX005 (ip), vehicle: water 99 % of control

CCN(CC)CCOc1c(Cl)cc(Cl)cc1Cl
inactive: dose: 50.0 mg/kg/injection, schedule: Q01DX005 (ip), vehicle: saline with Tween-80 93 % of control | dose: 100.0 mg/kg/injection, schedule: Q01DX005 (ip), vehicle: saline with Tween-80 111 % of control | dose: 200.0 mg/kg/injection, schedule: Q01DX005 (ip), vehicle: saline with Tween-80 111 % of control

COc1cc2c(cc1O)C1CC(CC3CCCCN31)OC(=O)/C=C\c1ccc(O)c-2c1 (centres undefined)
inactive: dose: 25.0 mg/kg/injection, schedule: Q04DX003 (ip), vehicle: saline 100 % of control | dose: 50.0 mg/kg/injection, schedule: Q04DX003 (ip), vehicle: saline 107 % of control and 109 % of control | [1] 102 % of control and 110 % of control and 121 % of control | [2] 100 % of control and 102 % of control and 105 % of control

C/C(=N/NC(N)=O)c1cccc(/C(C)=N/NC(N)=O)n1.[Cl][Cu][Cl]
inactive: dose: 3.12 mg/kg/injection, schedule: Q01DX009 (ip), vehicle: saline 108 % of control | dose: 6.25 mg/kg/injection, schedule: Q01DX009 (ip), vehicle: saline 94 % of control | dose: 12.5 mg/kg/injection, schedule: Q01DX009 (ip), vehicle: saline 99 % of control

Nc1ccc(N=Nc2ccc(S(=O)(=O)O)cc2)cc1
inactive: [3] 95 % of control | [4] 100 % of control | [5] 100 % of control

COCC/C=C\CN(C(C)C)C(C)C
inactive: dose: 50.0 mg/kg/injection, schedule: Q01DX009 (ip), vehicle: saline with Tween-80 99 % of control | [6] 101 % of control

CC1=C(C#N)C(=O)N(C)C(=O)C1(Cl)Cl
inactive: dose: 100.0 mg/kg/injection, schedule: Q04DX002 (ip), vehicle: Klucel (hydroxypropylcellulose) (HPC) 98 % of control | dose: 200.0 mg/kg/injection, schedule: Q04DX002 (ip), vehicle: Klucel (hydroxypropylcellulose) (HPC) 98 % of control

COc1cc2cccc(N)c2cc1OC
inactive: dose: 6.25 mg/kg/injection, schedule: Q01DX009 (ip), vehicle: water 106 % of control | dose: 12.5 mg/kg/injection, schedule: Q01DX009 (ip), vehicle: water 114 % of control | dose: 25.0 mg/kg/injection, schedule: Q01DX009 (ip), vehicle: water 110 % of control | dose: 50.0 mg/kg/injection, schedule: Q01DX009 (ip), vehicle: water 110 % of control

C=CN1CCCC1=O
inactive: [1] 104 % of control | [2] 100 % of control | dose: 0.25 % in 0.5 ml injection vol, schedule: Q01DX009 (ip), vehicle: water 100 % of control | dose: 400.0 mg/kg/injection, schedule: Q04DX003 (ip), vehicle: saline 100 % of control | dose: 0.5 % in 0.5 ml injection vol, schedule: Q01DX009 (ip), vehicle: water 107 % of control | dose: 1.0 % in 0.5 ml injection vol, schedule: Q01DX009 (ip), vehicle: water 100 % of control and 102 % of control | dose: 2.0 % in 0.5 ml injection vol, schedule: Q01DX009 (ip), vehicle: water 100 % of control and 98 % of control | dose: 4.0 % in 0.5 ml injection vol, schedule: Q01DX009 (ip), vehicle: water 102 % of control and 104 % of control and 108 % of control | dose: 8.0 % in 0.5 ml injection vol, schedule: Q01DX009 (ip), vehicle: water 102 % of control and 109 % of control and 92 % of control | dose: 16.0 % in 0.5 ml injection vol, schedule: Q01DX009 (ip), vehicle: water 100 % of control and 103 % of control and 95 % of control

CC(=O)OCC1OC(Oc2ncccn2)C(OC(C)=O)C1OC(C)=O (centres undefined)
inactive: [7] 98 % of control | dose: 50.0 mg/kg/injection, schedule: Q01DX009 (ip), vehicle: suspension in saline 100 % of control | [8] 103 % of control | dose: 100.0 mg/kg/injection, schedule: Q01DX009 (ip), vehicle: suspension in saline 99 % of control | [9] 100 % of control | dose: 200.0 mg/kg/injection, schedule: Q01DX009 (ip), vehicle: suspension in saline 99 % of control | dose: 400.0 mg/kg/injection, schedule: Q01DX009 (ip), vehicle: saline 99 % of control | dose: 400.0 mg/kg/injection, schedule: Q01DX009 (ip), vehicle: suspension in saline 96 % of control

CCCCCCCCCCCCCCCCSCC(COC)COP(=O)([O-])OCC[N+](C)(C)C (centres undefined)
inactive: dose: 1.25 mg/kg/injection, schedule: Q01DX005 (oral), vehicle: saline 109 % of control | dose: 2.5 mg/kg/injection, schedule: Q01DX005 (oral), vehicle: saline 106 % of control | dose: 5.0 mg/kg/injection, schedule: Q01DX005 (oral), vehicle: saline 110 % of control | dose: 10.0 mg/kg/injection, schedule: Q01DX005 (oral), vehicle: saline 110 % of control | dose: 20.0 mg/kg/injection, schedule: Q01DX005 (oral), vehicle: saline 109 % of control | dose: 40.0 mg/kg/injection, schedule: Q01DX005 (oral), vehicle: saline 108 % of control

Nc1ccc(S(=O)(=O)Nc2ccccc2O)cc1
inactive: dose: 3.12 mg/kg/injection, schedule: Q01DX001 (ip), vehicle: saline with Tween-80 99 % of control | dose: 6.25 mg/kg/injection, schedule: Q01DX001 (ip), vehicle: saline with Tween-80 106 % of control | dose: 12.5 mg/kg/injection, schedule: Q01DX001 (ip), vehicle: saline with Tween-80 97 % of control | dose: 25.0 mg/kg/injection, schedule: Q01DX001 (ip), vehicle: saline with Tween-80 94 % of control | dose: 50.0 mg/kg/injection, schedule: Q01DX001 (ip), vehicle: saline with Tween-80 100 % of control

N#Cc1cccc(/C=C\C(=O)c2ccccc2)c1
inactive: [7] 88 % of control | [8] 100 % of control | [9] 92 % of control

COc1cccc(-c2c(C#N)c(=O)n(C)c3nncn23)c1
inactive: dose: 100.0 mg/kg/injection, schedule: Q01DX001 (ip), vehicle: saline with Tween-80 97 % of control | dose: 200.0 mg/kg/injection, schedule: Q01DX001 (ip), vehicle: saline with Tween-80 94 % of control | dose: 400.0 mg/kg/injection, schedule: Q01DX001 (ip), vehicle: saline with Tween-80 91 % of control

O=C1C2CCCN2C(=S)N1c1ccccc1 (centres undefined)
inactive: dose: 60.0 mg/kg/injection, schedule: Q01DX005 (ip), vehicle: Klucel (hydroxypropylcellulose) (HPC) 96 % of control | dose: 120.0 mg/kg/injection, schedule: Q01DX005 (ip), vehicle: Klucel (hydroxypropylcellulose) (HPC) 91 % of control | dose: 240.0 mg/kg/injection, schedule: Q01DX005 (ip), vehicle: Klucel (hydroxypropylcellulose) (HPC) 94 % of control

O=S(=O)(Nc1ccc(Br)cc1)c1ccccc1
inactive: [6] 100 % of control | [3] 100 % of control | dose: 200.0 mg/kg/injection, schedule: Q01DX009 (ip), vehicle: saline with Tween-80 90 % of control | [4] 95 % of control | dose: 400.0 mg/kg/injection, schedule: Q01DX009 (ip), vehicle: saline with Tween-80 100 % of control | [5] 91 % of control

CCOC(CN(C)C)C(Cl)(Cl)Cl (centres undefined)
inactive: dose: 25.0 mg/kg/injection, schedule: Q01DX009 (ip), vehicle: Klucel (hydroxypropylcellulose) (HPC) 103 % of control | dose: 50.0 mg/kg/injection, schedule: Q01DX009 (ip), vehicle: Klucel (hydroxypropylcellulose) (HPC) 103 % of control | dose: 100.0 mg/kg/injection, schedule: Q01DX009 (ip), vehicle: Klucel (hydroxypropylcellulose) (HPC) 88 % of control | dose: 200.0 mg/kg/injection, schedule: Q01DX009 (ip), vehicle: Klucel (hydroxypropylcellulose) (HPC) 108 % of control

O=[N+]([O-])c1ccc(Sc2ncccn2)cc1
inactive: dose: 25.0 mg/kg/injection, schedule: Q04DX002 (ip), vehicle: suspension in saline 108 % of control | dose: 50.0 mg/kg/injection, schedule: Q04DX002 (ip), vehicle: suspension in saline 94 % of control | dose: 100.0 mg/kg/injection, schedule: Q04DX002 (ip), vehicle: suspension in saline 101 % of control | dose: 200.0 mg/kg/injection, schedule: Q04DX002 (ip), vehicle: suspension in saline 100 % of control | dose: 400.0 mg/kg/injection, schedule: Q04DX002 (ip), vehicle: suspension in saline 96 % of control

— PubChem BioAssay AID330 (DTP/NCI, 2004)
